Reference: patent publication US20220088016A1, “CANCER TREATMENT USING MULTI-TARGETED KINASE INHIBITOR IN COMBINATION OF PROTEIN KINASE BIOMARKERS” (ZHEJIANG CROWNMAB BIOTECH CO. LTD., priority 2019, published 2022)

How the values were obtained:
Test in all cases: Kinase profiling
Assay type in all cases: binding
Conditions in all cases: read-out: % Ctrl @ 1000 nM
AAK1 = AAK1 (Homo sapiens, UniProt Q2M2I8)
ACVR2B = ACVR2B (Homo sapiens, UniProt Q13705)
ALK (C1156Y) = ALK (C1156Y) (Homo sapiens, UniProt Q9UM73, C1156Y)
BRK = BRK (Homo sapiens, UniProt Q13882)
BUB1 = BUB1 (Homo sapiens, UniProt O43683)
CAMKK1 = CAMKK1 (Homo sapiens, UniProt Q8N5S9)
CDC2L2 = CDC2L2 (Homo sapiens, UniProt Q9UQ88)
CDK4-cyclinD3 = CDK4-cyclinD3 (Homo sapiens, UniProt P11802)
Chain of CDK4-cyclinD3 (P11802 2-303): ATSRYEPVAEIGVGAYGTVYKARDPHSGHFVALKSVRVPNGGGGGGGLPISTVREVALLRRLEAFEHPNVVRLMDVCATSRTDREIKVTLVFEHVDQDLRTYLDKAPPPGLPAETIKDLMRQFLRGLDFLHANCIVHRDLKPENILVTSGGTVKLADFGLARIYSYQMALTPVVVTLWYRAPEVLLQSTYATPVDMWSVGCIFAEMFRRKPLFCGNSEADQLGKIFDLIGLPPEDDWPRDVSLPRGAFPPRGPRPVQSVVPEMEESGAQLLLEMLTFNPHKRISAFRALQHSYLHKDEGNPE
Chain of CDK4-cyclinD3 (P30281 whole entry partner): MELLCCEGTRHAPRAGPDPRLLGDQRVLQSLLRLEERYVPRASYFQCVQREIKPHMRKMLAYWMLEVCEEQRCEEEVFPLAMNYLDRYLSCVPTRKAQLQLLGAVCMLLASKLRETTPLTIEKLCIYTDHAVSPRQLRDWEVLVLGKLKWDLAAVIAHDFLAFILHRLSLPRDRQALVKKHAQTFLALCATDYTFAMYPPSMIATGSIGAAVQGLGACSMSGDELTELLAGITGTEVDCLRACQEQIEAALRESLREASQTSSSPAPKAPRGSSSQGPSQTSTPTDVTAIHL

CLK4 = CLK4 (Homo sapiens, UniProt Q9HAZ1)
CTK = CTK (Homo sapiens, UniProt P42679)
DAPK3 = DAPK3 (Homo sapiens, UniProt O43293)
EGFR (E746-A750del) = EGFR (E746-A750del) (Homo sapiens, UniProt P00533, DEL746-750)
Chain of EGFR (E746-A750del) (P00533 with tags, fused parts or gaps DEL746-750): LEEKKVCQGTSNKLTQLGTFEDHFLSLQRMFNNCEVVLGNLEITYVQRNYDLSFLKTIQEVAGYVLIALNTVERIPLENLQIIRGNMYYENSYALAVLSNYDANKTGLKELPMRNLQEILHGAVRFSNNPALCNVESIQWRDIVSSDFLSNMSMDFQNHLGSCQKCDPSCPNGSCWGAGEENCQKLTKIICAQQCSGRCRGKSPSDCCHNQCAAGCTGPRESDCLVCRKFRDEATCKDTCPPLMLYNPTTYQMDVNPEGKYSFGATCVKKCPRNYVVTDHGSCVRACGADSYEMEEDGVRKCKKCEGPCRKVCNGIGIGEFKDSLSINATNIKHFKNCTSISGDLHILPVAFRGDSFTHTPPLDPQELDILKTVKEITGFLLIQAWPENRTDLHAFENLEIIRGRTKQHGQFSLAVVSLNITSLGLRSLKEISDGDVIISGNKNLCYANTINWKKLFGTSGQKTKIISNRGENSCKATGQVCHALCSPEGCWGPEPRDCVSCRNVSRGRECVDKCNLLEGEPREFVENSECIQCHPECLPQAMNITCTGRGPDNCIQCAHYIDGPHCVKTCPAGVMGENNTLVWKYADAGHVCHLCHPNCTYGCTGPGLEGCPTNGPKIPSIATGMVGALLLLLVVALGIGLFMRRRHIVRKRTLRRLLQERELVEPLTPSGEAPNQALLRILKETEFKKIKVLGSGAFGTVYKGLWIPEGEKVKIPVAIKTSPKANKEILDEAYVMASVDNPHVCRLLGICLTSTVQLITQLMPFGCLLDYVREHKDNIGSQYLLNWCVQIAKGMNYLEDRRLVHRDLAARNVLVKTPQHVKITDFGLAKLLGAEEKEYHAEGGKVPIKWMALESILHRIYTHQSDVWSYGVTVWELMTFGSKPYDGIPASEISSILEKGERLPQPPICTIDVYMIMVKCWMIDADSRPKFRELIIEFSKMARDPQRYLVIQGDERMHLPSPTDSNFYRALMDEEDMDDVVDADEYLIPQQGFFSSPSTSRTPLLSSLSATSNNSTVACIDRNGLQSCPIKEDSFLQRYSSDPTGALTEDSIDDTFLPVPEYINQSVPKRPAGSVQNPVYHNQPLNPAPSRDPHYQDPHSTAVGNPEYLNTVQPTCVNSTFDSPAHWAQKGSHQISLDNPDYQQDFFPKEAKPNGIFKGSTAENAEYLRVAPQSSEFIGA

FGR = FGR (Homo sapiens, UniProt P09769)
Chain of FGR (P09769 whole entry): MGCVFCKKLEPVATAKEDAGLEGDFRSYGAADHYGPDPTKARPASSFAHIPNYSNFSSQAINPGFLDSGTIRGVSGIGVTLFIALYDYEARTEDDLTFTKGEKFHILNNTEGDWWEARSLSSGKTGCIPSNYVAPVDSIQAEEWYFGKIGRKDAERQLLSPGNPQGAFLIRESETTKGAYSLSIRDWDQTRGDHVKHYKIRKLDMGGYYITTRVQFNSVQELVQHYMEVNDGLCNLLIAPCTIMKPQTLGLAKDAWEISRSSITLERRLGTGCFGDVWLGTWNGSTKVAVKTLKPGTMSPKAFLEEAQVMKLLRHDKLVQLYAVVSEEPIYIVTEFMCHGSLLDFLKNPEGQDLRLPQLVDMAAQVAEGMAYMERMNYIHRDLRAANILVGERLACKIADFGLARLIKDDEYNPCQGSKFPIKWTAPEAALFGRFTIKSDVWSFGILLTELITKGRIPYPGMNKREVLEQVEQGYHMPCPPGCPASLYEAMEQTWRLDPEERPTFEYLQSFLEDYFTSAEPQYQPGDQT

GCN2 (Kin.Dom.2, S808G) = GCN2 (Kin.Dom.2, S808G) (Homo sapiens, UniProt Q9P2K8, S808G)
GRK2 = GRK2 (Homo sapiens, UniProt P25098)
GRK3 = GRK3 (Homo sapiens, UniProt P35626)
HCK = HCK (Homo sapiens, UniProt P08631)
MAP3K1 = MAP3K1 (Homo sapiens, UniProt Q13233)
MAP3K4 = MAP3K4 (Homo sapiens, UniProt Q9Y6R4)
MAP4K2 = MAP4K2 (Homo sapiens, UniProt Q12851)
Chain of MAP4K2 (Q12851 whole entry): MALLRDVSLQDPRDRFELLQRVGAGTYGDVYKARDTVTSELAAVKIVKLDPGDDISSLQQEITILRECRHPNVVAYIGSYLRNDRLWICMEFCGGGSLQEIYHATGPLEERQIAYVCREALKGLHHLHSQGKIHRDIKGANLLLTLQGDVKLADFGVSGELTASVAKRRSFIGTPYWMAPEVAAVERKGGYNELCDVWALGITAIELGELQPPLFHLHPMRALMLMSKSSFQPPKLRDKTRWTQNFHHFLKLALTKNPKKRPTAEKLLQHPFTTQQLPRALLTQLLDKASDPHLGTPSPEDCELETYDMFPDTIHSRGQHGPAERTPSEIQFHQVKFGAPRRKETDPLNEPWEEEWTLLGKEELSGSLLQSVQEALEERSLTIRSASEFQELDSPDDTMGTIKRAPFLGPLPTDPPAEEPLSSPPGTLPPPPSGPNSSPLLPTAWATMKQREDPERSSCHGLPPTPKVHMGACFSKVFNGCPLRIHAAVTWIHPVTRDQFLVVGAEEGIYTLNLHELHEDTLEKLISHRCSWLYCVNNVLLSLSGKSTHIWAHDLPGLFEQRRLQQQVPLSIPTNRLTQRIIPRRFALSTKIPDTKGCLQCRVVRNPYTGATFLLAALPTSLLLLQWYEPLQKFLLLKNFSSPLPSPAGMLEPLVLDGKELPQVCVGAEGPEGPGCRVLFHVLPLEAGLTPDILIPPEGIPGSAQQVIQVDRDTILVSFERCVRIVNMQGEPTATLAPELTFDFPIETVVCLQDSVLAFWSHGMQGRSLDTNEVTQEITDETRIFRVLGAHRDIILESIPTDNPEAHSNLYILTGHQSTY

MEK2 = molecular target: T1, MEK2 (Homo sapiens, UniProt P36507)
T1 construct: T7 phage fusion (stated for most kinases of the panel only); made in house; host or cells: T7 phage in E. coli (BL21-derived) or HEK-293 cells

MERTK = molecular target: T2, MERTK (Homo sapiens, UniProt Q12866)
T2 construct: T7 phage fusion (stated for most kinases of the panel only); made in house; host or cells: T7 phage in E. coli (BL21-derived) or HEK-293 cells

MYO3A = molecular target: T3, MYO3A (Homo sapiens, UniProt Q8NEV4)
T3 construct: T7 phage fusion (said for most assays); made in house

PAK7 = PAK7 (Homo sapiens, UniProt Q9P286)
PIK3CA (E545A) = PIK3CA (E545A) (Homo sapiens, UniProt P42336, E545A)
PIK3CG = PIK3CG (Homo sapiens, UniProt P48736)
PLK2 = PLK2 (Homo sapiens, UniProt Q9NYY3)
Chain of PLK2 (Q9NYY3 whole entry): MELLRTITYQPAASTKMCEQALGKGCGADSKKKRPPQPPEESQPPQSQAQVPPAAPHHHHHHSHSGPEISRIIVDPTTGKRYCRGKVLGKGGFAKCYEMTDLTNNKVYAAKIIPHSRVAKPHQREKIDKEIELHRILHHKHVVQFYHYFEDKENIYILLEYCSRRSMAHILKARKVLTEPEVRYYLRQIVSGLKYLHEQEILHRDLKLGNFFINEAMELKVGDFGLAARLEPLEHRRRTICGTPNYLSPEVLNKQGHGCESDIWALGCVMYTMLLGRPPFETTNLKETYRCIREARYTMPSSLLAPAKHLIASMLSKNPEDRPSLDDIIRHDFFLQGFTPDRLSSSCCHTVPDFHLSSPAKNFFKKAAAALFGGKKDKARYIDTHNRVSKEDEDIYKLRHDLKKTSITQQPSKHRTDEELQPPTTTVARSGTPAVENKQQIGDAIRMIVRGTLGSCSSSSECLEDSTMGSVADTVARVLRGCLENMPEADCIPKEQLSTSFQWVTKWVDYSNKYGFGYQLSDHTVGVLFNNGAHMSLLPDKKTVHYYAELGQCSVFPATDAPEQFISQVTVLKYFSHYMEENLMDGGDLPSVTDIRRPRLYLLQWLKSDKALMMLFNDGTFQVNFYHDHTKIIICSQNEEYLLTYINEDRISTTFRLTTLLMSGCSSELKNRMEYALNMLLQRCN

PRKD1 = PRKD1 (Homo sapiens, UniProt Q15139)
PRKD3 = PRKD3 (Homo sapiens, UniProt O94806)
RET (V804L) = RET (V804L) (Homo sapiens, UniProt P07949, V804L)
RIPK5 = RIPK5 (Homo sapiens, UniProt Q6XUX3)
Chain of RIPK5 (Q6XUX3 whole entry): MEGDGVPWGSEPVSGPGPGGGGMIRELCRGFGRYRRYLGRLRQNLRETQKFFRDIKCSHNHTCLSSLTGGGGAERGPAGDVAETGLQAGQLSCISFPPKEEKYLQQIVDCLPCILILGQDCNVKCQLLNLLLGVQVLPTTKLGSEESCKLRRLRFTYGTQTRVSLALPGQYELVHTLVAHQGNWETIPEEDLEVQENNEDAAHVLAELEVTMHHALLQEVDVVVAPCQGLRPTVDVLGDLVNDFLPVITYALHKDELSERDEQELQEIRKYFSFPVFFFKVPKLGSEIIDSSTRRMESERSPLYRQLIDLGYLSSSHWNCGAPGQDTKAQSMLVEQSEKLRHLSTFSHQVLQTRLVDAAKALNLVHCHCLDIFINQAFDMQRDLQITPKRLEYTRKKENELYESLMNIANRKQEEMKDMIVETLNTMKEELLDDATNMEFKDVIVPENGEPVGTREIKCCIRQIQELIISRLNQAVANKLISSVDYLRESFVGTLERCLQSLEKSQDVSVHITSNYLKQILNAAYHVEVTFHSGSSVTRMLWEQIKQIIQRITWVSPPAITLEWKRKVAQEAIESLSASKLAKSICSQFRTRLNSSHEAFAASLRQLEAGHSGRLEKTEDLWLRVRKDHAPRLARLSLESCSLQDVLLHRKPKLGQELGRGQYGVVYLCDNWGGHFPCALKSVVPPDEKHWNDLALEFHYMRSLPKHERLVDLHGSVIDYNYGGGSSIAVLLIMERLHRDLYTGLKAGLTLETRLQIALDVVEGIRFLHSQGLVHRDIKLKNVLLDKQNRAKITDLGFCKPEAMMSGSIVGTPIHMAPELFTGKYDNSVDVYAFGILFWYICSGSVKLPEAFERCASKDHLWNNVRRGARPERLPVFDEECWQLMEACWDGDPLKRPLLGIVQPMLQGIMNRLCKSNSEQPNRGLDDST

ROCK2 = ROCK2 (Homo sapiens, UniProt O75116)
SRPK3 = SRPK3 (Homo sapiens, UniProt Q9UPE1)
STK36 = STK36 (Homo sapiens, UniProt Q9NRP7)
TAOK2 = TAOK2 (Homo sapiens, UniProt Q9UL54)
TLK2 = TLK2 (Homo sapiens, UniProt Q86UE8)
TNIK = TNIK (Homo sapiens, UniProt Q9UKE5)
YANK1 = YANK1 (Homo sapiens, UniProt Q8WU08)
ZAK = ZAK (Homo sapiens, UniProt Q9NYL2)

Cc1cc(Oc2cc(NC(=O)C3CC3)ncn2)ccc1NC(=O)Nc1ccc(Cl)c(C(F)(F)F)c1 [CBT-102] showed a remaining activity at 1 µM (AAK1) of 96%, a remaining activity at 1 µM (ACVR2B) of 89% and a remaining activity at 1 µM (ALK (C1156Y)) of 97%. For the same compound, the remaining activity at 1 µM (BRK) was 89%, the remaining activity at 1 µM (BUB1) was 100% and the remaining activity at 1 µM (CAMKK1) was 88%. The remaining activity at 1 µM (CDC2L2) was 22%, the remaining activity at 1 µM (CDK4-cyclinD3) was 100% and the remaining activity at 1 µM (CLK4) was 95%. The remaining activity at 1 µM (CTK) was 74%, the remaining activity at 1 µM (DAPK3) was 96% and the remaining activity at 1 µM (EGFR (E746-A750del)) was 95%. It also gave a remaining activity at 1 µM (FGR) of 41%, a remaining activity at 1 µM (GCN2 (Kin.Dom.2, S808G)) of 100% and a remaining activity at 1 µM (GRK2) of 100%. It also gave a remaining activity at 1 µM (GRK3) of 97%, a remaining activity at 1 µM (HCK) of 54% and a remaining activity at 1 µM (MAP3K1) of 83%. It also gave a remaining activity at 1 µM (MAP3K4) of 100%, a remaining activity at 1 µM (MAP4K2) of 91% and a remaining activity at 1 µM (MEK2) of 76%. The remaining activity at 1 µM (MERTK) was 23%, the remaining activity at 1 µM (MYO3A) was 81% and the remaining activity at 1 µM (PAK7) was 91%. For the same compound, the remaining activity at 1 µM (PIK3CA (E545A)) was 100%, the remaining activity at 1 µM (PIK3CG) was 100% and the remaining activity at 1 µM (PLK2) was 93%. For the same compound, the remaining activity at 1 µM (PRKD1) was 100%, the remaining activity at 1 µM (PRKD3) was 91% and the remaining activity at 1 µM (RET (V804L)) was 42%. For the same compound, the remaining activity at 1 µM (RIPK5) was 100%, the remaining activity at 1 µM (ROCK2) was 100% and the remaining activity at 1 µM (SRPK3) was 100%. For the same compound, the remaining activity at 1 µM (STK36) was 2.5%, the remaining activity at 1 µM (TAOK2) was 23% and the remaining activity at 1 µM (TLK2) was 100%. It also gave a remaining activity at 1 µM (TNIK) of 8.3%, a remaining activity at 1 µM (YANK1) of 98% and a remaining activity at 1 µM (ZAK) of 5.5%.
